For orientation: melting point means the temperature, or range, at which the solid turns liquid.

Regarding `N#Cc1cc(C2=Nc3cc(N4CCCC4)c(C(F)(F)F)cc3NC(=O)C2)ccn1` [Example 40, 4-(4-Oxo-8-pyrrolidin-1-yl-7-trifluoromethyl-4,5-dihydro-3H-benzo[b][1,4]diazepin-2-yl)-pyridine-2-carbonitrile], the melting point was 188 °C (dec.). In turn, `CN(C)c1cc2c(cc1C(F)(F)F)NC(=O)CC(c1cccc(-c3ccnn3C)c1)=N2` [Example 33, 7-Dimethylamino-4-[3-(2-methyl-2H-pyrazol-3-yl)-phenyl]-8-trifluoromethyl-1,3-dihydro-benzo[b][1,4]diazepin-2-one] showed a melting point of 225 °C.

With `Cc1cc(-c2cc(C3=Nc4cc(N(C)C)c(Cl)cc4NC(=O)C3)ccn2)on1` [Example 10, 8-Chloro-7-dimethylamino-4-[2-(3-methyl-isoxazol-5-yl)-pyridin-4-yl]-1,3-dihydro-benzo[b][1,4]diazepin-2-one], the melting point is above 250 °C. With `O=C1CC(c2cccc(-n3nncc3CO)c2)=Nc2cc(N3CCC3)c(C(F)(F)F)cc2N1` [Example 63, 7-Azetidin-1-yl-4-[3-(5-hydroxymethyl-[1,2,3]triazol-1-yl)-phenyl]-8-trifluoromethyl-1,3-dihydro-benzo[b][1,4]diazepin-2-one] the figure was 202 °C (dec.); with `O=C1CC(c2cccc(-n3ccnc3)c2)=Nc2cc(OCC(F)(F)F)c(-c3ccccc3F)cc2N1` [Example 23, 8-(2-Fluoro-phenyl)-4-(3-imidazol-1-yl-phenyl)-7-(2,2,2-trifluoro-ethoxy)-1,3-dihydro-benzo[b][1,4]diazepin-2-one], 208 to 210 °C. Regarding `Cc1cc2c(cc1N(C)CC(C)C)N=C(c1cccc(-n3ncnc3CO)c1)CC(=O)N2` [Example 168, 4-[3-(5-Hydroxymethyl-[1,2,4]triazol-1-yl)-phenyl]-7-(isobutyl-methyl-amino)-8-methyl-1,3-dihydro-benzo[b][1,4]diazepin-2-one], the melting point came to 191 °C. Take `Cc1ocnc1-c1cccc(C2=Nc3cc(N(C)C)c(C(F)(F)F)cc3NC(=O)C2)c1` [Example 211, 7-Dimethylamino-4-[3-(5-methyl-oxazol-4-yl)-phenyl]-8-trifluoromethyl-1,3-dihydro-benzo[b][1,4]diazepin-2-one]: the melting point was in the range of 238 to 239 °C. Then `CC(C)CN(C)c1cc2c(cc1C(F)(F)F)NC(=O)CC(c1cccc(-n3cccn3)c1)=N2` [Example 171, 7-(Isobutyl-methyl-amino)-4-(3-pyrazol-1-yl-phenyl)-8-trifluoromethyl-1,3-dihydro-benzo[b][1,4]diazepin-2-one], with 182 °C.

Turning to `CN(C)Cc1cnnn1-c1cccc(C2=Nc3cc(N(C)C)c(C(F)(F)F)cc3NC(=O)C2)c1` [Example 38, 7-Dimethylamino-4-[3-(5-dimethylaminomethyl-[1,2,3]triazol-1-yl)-phenyl]-8-trifluoromethyl-1,3-dihydro-benzo[b][1,4]diazepin-2-one], the melting point is 200 °C.

As for `CCCN(C)c1cc2c(cc1Cl)NC(=O)CC(c1cccc(-c3nc(CO)cs3)c1)=N2` [Example 184, 8-Chloro-4-[3-(4-hydroxymethyl-thiazol-2-yl)-phenyl]-7-(methyl-propyl-amino)-1,3-dihydro-benzo[b][1,4]diazepin-2-one], the melting point lay in the range of 211 to 213 °C. With `Cc1cc(-c2cccc(C3=Nc4cc(N(C)C)c(C)cc4NC(=O)C3)c2)on1` [Example 100, 7-Dimethylamino-8-methyl-4-[3-(3-methyl-isoxazol-5-yl)-phenyl]-1,3-dihydro-benzo[b][1,4]diazepin-2-one] the figure was 204 °C; with `CC(C)NCc1cnnn1-c1cccc(C2=Nc3cc(N(C)C(C)C)c(Cl)cc3NC(=O)C2)c1` [Example 145, 8-Chloro-4-{3-[5-(isopropylamino-methyl)-[1,2,3]triazol-1-yl]-phenyl}-7-(isopropyl-methyl-amino)-1,3-dihydro-benzo[b][1,4]diazepin-2-one], 208 °C. Then `Cc1cc(-c2cccc(C3=Nc4cc(N(C)C5CC5)c(Cl)cc4NC(=O)C3)c2)on1` [Example 36, 8-Chloro-7-(cyclopropyl-methyl-amino)-4-[3-(3-methyl-isoxazol-5-yl)-phenyl]-1,3-dihydro-benzo[b][1,4]diazepin-2-one], with 195 to 197 °C; and `CCCN(C)c1cc2c(cc1C(F)(F)F)NC(=O)CC(c1cccc(-c3cc(C)no3)c1)=N2` [Example 116, 4-[3-(3-Methyl-isoxazol-5-yl)-phenyl]-7-(methyl-propyl-amino)-8-trifluoromethyl-1,3-dihydro-benzo[b][1,4]diazepin-2-one], with 193 °C. Then `CN(C)c1cc2c(cc1F)NC(=O)CC(c1cccc(-n3nncc3CO)c1)=N2` [Example 42, 7-Dimethylamino-8-fluoro-4-[3-(5-hydroxymethyl-[1,2,3]triazol-1-yl)-phenyl]-1,3-dihydro-benzo[b][1,4]diazepin-2-one], with 75 °C. Consider `CC(C)N(C)c1cc2c(cc1C(F)(F)F)NC(=O)CC(c1cccc(-n3nncc3CNC3CC3)c1)=N2` [Example 157, 4-[3-(5-Cyclopropylaminomethyl-[1,2,3]triazol-1-yl)-phenyl]-7-(isopropyl-methyl-amino)-8-trifluoromethyl-1,3-dihydro-benzo[b][1,4]diazepin-2-one], for which the melting point came to 178 °C. With `CN(C)c1cc2c(cc1Cl)NC(=O)CC(c1cccc(-c3cc(CO)nn3C)c1)=N2` [Example 39, 8-Chloro-7-dimethylamino-4-[3-(5-hydroxymethyl-2-methyl-2H-pyrazol-3-yl)-phenyl]-1,3-dihydro-benzo[b][1,4]diazepin-2-one] the figure was 184 °C. In turn, `Cc1cc(-c2cccc(C3=Nc4cc(N5CCCC5)c(C)cc4NC(=O)C3)c2)on1` [Example 135, 8-Methyl-4-[3-(3-methyl-isoxazol-5-yl)-phenyl]-7-pyrrolidin-1-yl-1,3-dihydro-benzo[b][1,4]diazepin-2-one] gave a melting point of 211 °C. `Cc1nc(-c2cccc(C3=Nc4cc(N(C)C)c(C(F)(F)F)cc4NC(=O)C3)c2)co1` [Example 210, 7-Dimethylamino-4-[3-(2-methyl-oxazol-4-yl)-phenyl]-8-trifluoromethyl-1,3-dihydro-benzo[b][1,4]diazepin-2-one] showed a melting point of 192 to 193 °C. Molecule `Cc1sc(CO)nc1-c1cccc(C2=Nc3cc(N(C)C)c(C(F)(F)F)cc3NC(=O)C2)c1` [Example 216, 7-Dimethylamino-4-[3-(2-hydroxymethyl-5-methyl-thiazol-4-yl)-phenyl]-8-trifluoromethyl-1,3-dihydro-benzo[b][1,4]diazepin-2-one] showed a melting point of 190 to 193 °C. `CCN(C)c1cc2c(cc1C)NC(=O)CC(c1cccc(-n3nncc3CO)c1)=N2` [Example 94, 7-(Ethyl-methyl-amino)-4-[3-(5-hydroxymethyl-[1,2,3]triazol-1-yl)-phenyl]-8-methyl-1,3-dihydro-benzo[b][1,4]diazepin-2-one] had a melting point of 207 °C.

Consider `CC(C)N(C)c1cc2c(cc1Cl)NC(=O)CC(c1cccc(-n3nncc3CO)c1)=N2` [Example 96, 8-Chloro-4-[3-(5-hydroxymethyl-[1,2,3]triazol-1-yl)-phenyl]-7-(isopropyl-methyl-amino)-1,3-dihydro-benzo[b][1,4]diazepin-2-one], for which the melting point is 207 °C. With `CCN(C)c1cc2c(cc1Cl)NC(=O)CC(c1cccc(-c3nc(CO)cs3)c1)=N2` [Example 183, 8-Chloro-7-(ethyl-methyl-amino)-4-[3-(4-hydroxymethyl-thiazol-2-yl)-phenyl]-1,3-dihydro-benzo[b][1,4]diazepin-2-one], the melting point lay in the range of 136 to 137 °C. Then `CN(C)c1cc2c(cc1C(F)(F)F)NC(=O)CC(c1cccc(-n3cnnc3)c1)=N2` [Example 65, 7-Dimethylamino-4-(3-[1,2,4]triazol-4-yl-phenyl)-8-trifluoromethyl-1,3-dihydro-benzo[b][1,4]diazepin-2-one], with 247 to 250 °C; and `CC(C)CNCc1cnnn1-c1cccc(C2=Nc3cc(N(C)C(C)C)c(Cl)cc3NC(=O)C2)c1` [Example 156, 8-Chloro-4-{3-[5-(isobutylamino-methyl)-[1,2,3]triazol-1-yl]-phenyl}-7-(isopropyl-methyl-amino)-1,3-dihydro-benzo[b][1,4]-diazepin-2-one], with 182 °C; and `CN(C)c1cc2c(cc1Cl)NC(=O)CC(c1cccc(-n3nncc3CN3CCC3)c1)=N2` [Example 48, 4-[3-(5-Azetidin-1-ylmethyl-[1,2,3]triazol-1-yl)-phenyl]-8-chloro-7-dimethylamino-1,3-dihydro-benzo[b][1,4]diazepin-2-one], with 153 °C.

As to `O=C1CC(c2cccc(-c3cc(CO)on3)c2)=Nc2cc(N3CCCC3)c(C(F)(F)F)cc2N1` [Example 60, 4-[3-(5-Hydroxymethyl-isoxazol-3-yl)-phenyl]-7-pyrrolidin-1-yl-8-trifluoromethyl-1,3-dihydro-benzo[b][1,4]diazepin-2-one], the melting point is 206 to 208 °C. Turning to `CN(C)c1cc2c(cc1C(F)(F)F)NC(=O)CC(c1cccc(-n3nncc3CO)c1)=N2` [Example 17, 7-Dimethylamino-4-[3-(5-hydroxymethyl-[1,2,3]triazol-1-yl)-phenyl]-8-trifluoromethyl-1,3-dihydro-benzo[b][1,4]diazepin-2-one], the melting point worked out at 210 °C.

With `CCCN(C)c1cc2c(cc1Cl)NC(=O)CC(c1cccc(-n3ncnc3CN(C)C)c1)=N2` [Example 166, 8-Chloro-4-[3-(5-dimethylaminomethyl-[1,2,4]triazol-1-yl)-phenyl]-7-(methyl-propyl-amino)-1,3-dihydro-benzo[b][1,4]diazepin-2-one], the melting point came to 170 °C. Then `CN(C)c1cc2c(cc1C#Cc1ccccc1)NC(=O)CC(c1cccc(C#N)c1)=N2` [Example 4, 3-(8-Dimethylamino-4-oxo-7-phenylethynyl-4,5-dihydro-3H-benzo[b][1,4]diazepin-2-yl)-benzonitrile], with 215 to 216 °C.

The values above are taken from patent US6544985B2, “Dihydro-benzo [b][1,4]diazepin-2-one derivatives” (Hoffman-La Roche Inc., priority 2001, dated 2003).
